The data set relates to Purpureocillium lilacinum spores. As to the kind of experiment: Spore viability (germination rate) of Purpureocillium lilacinum spores dispersed in fluid and stored at 30° C. The settings on record: P. lilacinum spores in fluid. The format is cell-based. Here is the method: 3 g of Purpureocillium lilacinum pure spore powder were transferred into a formulation vessel (IKA Type DT-20 mixing vessel with dispersion tool for Ultra Turrax) using a sterile spoon. 12 mL of fluid were added into the respective formulation vessel and dispersed using ultra turrax tube drive control for 1 min at 3000 rpm; change direction after 30 sec. After this 2.8 mL were transferred in four sample bottles (Wheaton Serum vial, Type I) leaving little headspace and closed tight using crimpneck caps (Macherey—Nagel type N 13). Afterwards all sample bottles were transferred to an incubator set at 30° C. and stored for a given time.
In regular intervals a sample was retrieved from the storage location and analyzed for spore viability. For this purpose, the original samples were thoroughly homogenized. Aliquots of 0.25 g or 250 μL of each sample were transferred into 50 mL falcon tubes. The tubes were filled up to 25 g using a sterile aqueous solution containing 2% Tween 80 and homogenized by vortexing to achieve the first dilution step (1:100 dilution). This dilution was used for further dilution and spotting on agar.
For these samples, an alternative dispersion/dilution method was applied where the oil phase was stripped from the spores first: 0.25 g or 250 μL of sample are weighted into a 2 mL Eppendorf tube, and 0.5 mL of 2% Tween 80 is added, and the mixture is transferred into an Eppendorf centrifuge where it is centrifuged for 1 min at 10.000 rpm. The supernatant (=upper oily phase) is discarded by using a pipette. […] 250 μL or 0.25 g of each sample were transferred into a sterile 50 mL Falcon tube. The tubes were filled up to 25 g using a sterile aqueous solution containing 2% Tween 80 and homogenized by vortexing to achieve the first dilution step (1:100 dilution). This dilution was used for further dilution and spotting on agar.
For evaluation of spore germination rate prepare a 1:30000 dilution based on the 1:100 dilution achieved by multiple automated dilution (pipetting robot, 96 well plate). Afterwards 12×12 cm agar plates were taken and spotted with 10 times 5 μL of each sample using an automated 12-Channel pipet. Wait until liquid is soaked up by agar and transfer agar plate to an incubator and incubate at 25° C. for 17 hours. Open the plate and place it under the microscope. Randomly chose one area per spot and record the number of germinated and non-germinated spores that are within the designated field. At least 200 spores per sample need to be evaluated. If needed count more than one field per spot.

Molecules are shown by their SMILES. Marks after values point to notes of the source that are not given here.

In the case of `CCCCOC(=O)CCCCC(=O)OCCCC` [Adimoll DB, di-n-Butyl adipate], the “spore viability [%] at day 1” value came to 98.9%. Further, the “spore viability [%] after 5-6 w (35-40 d)” value (storage at 30° C., 35-40 d) is on record as 97.5%. Besides, the “spore viability [%] after 3 m (87-92 d)” value (storage at 30° C., 87-92 d) was found to be 89.8%.

On to `CC(=O)OCC(COC(C)=O)OC(C)=O` [Triacetin, Glycerin triacetate], for which the “spore viability [%] at day 1” value is 98.3%. Moreover, the “spore viability [%] taken after 7 m of storage” value (storage at 30° C., 7 m) is 69.4* %. Moreover, for the setting “storage at 30° C., 12-15 d”, the “spore viability [%] after 2 w (12-15 d)” value is reported as 97.9%. Further, the “spore viability [%] after 1 m (27-28 d)” value (storage at 30° C., 27-28 d) is reported as 96.2%. Besides, the “spore viability [%] after 2 m (51-55 d)” value (storage at 30° C., 51-55 d) came to 90.8%.
